According to patent US20170226139A1, “CRYSTALLINE SALTS OF (Z)-O-OCTADEC-9-EN-1-YL O,O-DIHYDROGEN PHOSPHOROTHIOATE” (priority 2013, published 2017):
Entries after “also recorded” stand apart in the source; their conditions may differ. Read-outs that look alike come from different tables or passages of the source.

How the values were obtained:
[1] = tested on: S. typhimurium strains TA98, TA100, TA1535 and TA1537 and E. coli strain WP2uvrA; format: cell-based
Experimental: An Ames assay was conducted on Rx100.Lysine using S. typhimurium strains TA98, TA100, TA1535 and TA1537 and E. coli strain WP2uvrA. Two trials were performed. […] See Tables 38A and 38B, respectively. In the second trial, doses ranged from 0.160 to 16 μg/plate with some strains tested with activation and others without activation.

[2] = tested on: Cultured human peripheral lymphocytes cells; format: cell-based; details: for Aberrant Cells Mean % −g: excluding gaps only; for Aberrant Cells Mean % +g: plus cells with gaps only
Experimental: Cultured human peripheral lymphocytes cells were incubated in vitro with Rx100.Lysine for 3 hours with and without S9 mix and for 24 hours without S9 mix. For Rx100.Lysine, concentrations ranging from 3.39 to 500 μg/mL were examined in both treatment conditions. Adjusting for purity, the concentration ranges were 3.06 to 452 μg/mL. […] This increase was just above the historical vehicle control range (0 to 2.0%) for 3 hour treatment without metabolic activation. Thus the response observed is a weak positive and of questionable biological significance cytotoxicity was present just below the acceptable limit of 50±5% for this assay.
Thus, Rx100.Lysine was considered negative for inducing chromosome aberrations, polyploidy and endoreduplication, in cultured human peripheral blood lymphocytes following a 3 hour treatment with and a 24 treatment without metabolic activation.

[3] = 3-hour treatment with metabolic activation, 84.0 μg/mL
[4] = 3-hour treatment with metabolic activation, 120 μg/mL
[5] = 3-hour treatment with metabolic activation, 172 μg/mL
[6] = 3-hour treatment without metabolic activation, 120 μg/mL
[7] = 3-hour treatment without metabolic activation, 245 μg/mL
[8] = 3-hour treatment without metabolic activation, 350 μg/mL
[9] = 24-hour treatment without metabolic activation, 41.2 μg/mL
[10] = 24-hour treatment without metabolic activation, 84.0 μg/mL
[11] = 24-hour treatment without metabolic activation, 120 μg/mL

CCCCCCCC/C=C\CCCCCCCCOP(O)(O)=S [Rx100.L-Lysine, (Z)—O-octadec-9-en-1-yl O,O-dihydrogen phosphorothioate]
Ames assay, overall result [1]: negative
Genotoxic Effects ([1]; Bacterial Reverse Mutation Assay, plate incorporation 52 ± 4 hours): Genotoxic Effects: None
Revertant Colony Counts (Mean ± SD) ([1]; TA98, with metabolic activation, 1.45 μg/plate): 17 ± 5 ^N
Revertant Colony Counts (Mean ± SD) ([1]; TA98, with metabolic activation, 4.52 μg/plate): 19 ± 3 ^N
Revertant Colony Counts (Mean ± SD) ([1]; TA98, with metabolic activation, 14.5 μg/plate): 16 ± 5 ^N
Revertant Colony Counts (Mean ± SD) ([1]; TA98, with metabolic activation, 45.2 μg/plate): 20 ± 6 ^N
Revertant Colony Counts (Mean ± SD) ([1]; TA98, with metabolic activation, 145 μg/plate): 0 ± 0 ^E
Revertant Colony Counts (Mean ± SD) ([1]; TA98, with metabolic activation, 452 μg/plate): 0 ± 0 ^V
Revertant Colony Counts (Mean ± SD) ([1]; TA98, with metabolic activation, 1450 μg/plate): 0 ± 0 ^A
Revertant Colony Counts (Mean ± SD) ([1]; TA98, with metabolic activation, 4520 μg/plate): 0 ± 0 ^A
Revertant Colony Counts (Mean ± SD) ([1]; TA100, with metabolic activation, 1.45 μg/plate): 114 ± 12 ^N
Revertant Colony Counts (Mean ± SD) ([1]; TA100, with metabolic activation, 4.52 μg/plate): 117 ± 5 ^N
Revertant Colony Counts (Mean ± SD) ([1]; TA100, with metabolic activation, 14.5 μg/plate): 89 ± 14 ^N
Revertant Colony Counts (Mean ± SD) ([1]; TA100, with metabolic activation, 45.2 μg/plate): 26 ± 3 ^E
Revertant Colony Counts (Mean ± SD) ([1]; TA100, with metabolic activation, 145 μg/plate): 39 ± 3 ^M R
Revertant Colony Counts (Mean ± SD) ([1]; TA100, with metabolic activation, 452 μg/plate): 0 ± 0 ^A T
Revertant Colony Counts (Mean ± SD) ([1]; TA100, with metabolic activation, 1450 μg/plate): 0 ± 0 ^M A T
Revertant Colony Counts (Mean ± SD) ([1]; TA100, with metabolic activation, 4520 μg/plate): 0 ± 0 ^A T
Revertant Colony Counts (Mean ± SD) ([1]; TA1535, with metabolic activation, 0.0181 μg/plate): 10 ± 4 ^N M
Revertant Colony Counts (Mean ± SD) ([1]; TA1535, with metabolic activation, 0.0452 μg/plate): 11 ± 2 ^C M N
Revertant Colony Counts (Mean ± SD) ([1]; TA1535, with metabolic activation, 0.145 μg/plate): 9 ± 3 ^N
Revertant Colony Counts (Mean ± SD) ([1]; TA1535, with metabolic activation, 0.452 μg/plate): 13 ± 1 ^N
Revertant Colony Counts (Mean ± SD) ([1]; TA1535, with metabolic activation, 1.45 μg/plate): 11 ± 5 ^N
Revertant Colony Counts (Mean ± SD) ([1]; TA1535, with metabolic activation, 4.52 μg/plate): 9 ± 1 ^N
Revertant Colony Counts (Mean ± SD) ([1]; TA1535, with metabolic activation, 14.5 μg/plate): 11 ± 3 ^N
Revertant Colony Counts (Mean ± SD) ([1]; TA1537, with metabolic activation, 1.45 μg/plate): 9 ± 3 ^N
Revertant Colony Counts (Mean ± SD) ([1]; TA1537, with metabolic activation, 4.52 μg/plate): 7 ± 2 ^N M
Revertant Colony Counts (Mean ± SD) ([1]; TA1537, with metabolic activation, 14.5 μg/plate): 6 ± 5 ^M N
Revertant Colony Counts (Mean ± SD) ([1]; TA1537, with metabolic activation, 45.2 μg/plate): 3 ± 2 ^E
Revertant Colony Counts (Mean ± SD) ([1]; TA1537, with metabolic activation, 145 μg/plate): 0 ± 0 ^R
Revertant Colony Counts (Mean ± SD) ([1]; TA1537, with metabolic activation, 452 μg/plate): 0 ± 0 ^V
Revertant Colony Counts (Mean ± SD) ([1]; TA1537, with metabolic activation, 1450 μg/plate): 0 ± 0 ^V
Revertant Colony Counts (Mean ± SD) ([1]; TA1537, with metabolic activation, 4520 μg/plate): 0 ± 0 ^A
Revertant Colony Counts (Mean ± SD) ([1]; WP2uvrA, with metabolic activation, 1.45 μg/plate): 13 ± 4 ^N
Revertant Colony Counts (Mean ± SD) ([1]; WP2uvrA, with metabolic activation, 4.52 μg/plate): 17 ± 4 ^M N
Revertant Colony Counts (Mean ± SD) ([1]; WP2uvrA, with metabolic activation, 14.5 μg/plate): 19 ± 4 ^N
Revertant Colony Counts (Mean ± SD) ([1]; WP2uvrA, with metabolic activation, 45.2 μg/plate): 12 ± 4 ^N
Revertant Colony Counts (Mean ± SD) ([1]; WP2uvrA, with metabolic activation, 145 μg/plate): 15 ± 4 ^N M
Revertant Colony Counts (Mean ± SD) ([1]; WP2uvrA, with metabolic activation, 452 μg/plate): 15 ± 5 ^N
Revertant Colony Counts (Mean ± SD) ([1]; WP2uvrA, with metabolic activation, 1450 μg/plate): 9 ± 3 ^N
Revertant Colony Counts (Mean ± SD) ([1]; WP2uvrA, with metabolic activation, 4520 μg/plate): 0 ± 0 ^E
Revertant Colony Counts (Mean ± SD) ([1]; Without Metabolic Activation, TA98, 0.0181 μg/plate): 15 ± 3 ^N
Revertant Colony Counts (Mean ± SD) ([1]; Without Metabolic Activation, TA98, 0.0452 μg/plate): 15 ± 5 ^N M
Revertant Colony Counts (Mean ± SD) ([1]; Without Metabolic Activation, TA98, 0.145 μg/plate): 13 ± 2 ^N M
Revertant Colony Counts (Mean ± SD) ([1]; Without Metabolic Activation, TA98, 0.452 μg/plate): 13 ± 5 ^N
Revertant Colony Counts (Mean ± SD) ([1]; Without Metabolic Activation, TA98, 1.45 μg/plate): 14 ± 2 ^N
Revertant Colony Counts (Mean ± SD) ([1]; Without Metabolic Activation, TA98, 4.52 μg/plate): 12 ± 4 ^N
Revertant Colony Counts (Mean ± SD) ([1]; Without Metabolic Activation, TA98, 14.5 μg/plate): 12 ± 3 ^N
Revertant Colony Counts (Mean ± SD) ([1]; Without Metabolic Activation, TA100, 0.0181 μg/plate): 92 ± 8 ^N
Revertant Colony Counts (Mean ± SD) ([1]; Without Metabolic Activation, TA100, 0.0452 μg/plate): 93 ± 16 ^N
Revertant Colony Counts (Mean ± SD) ([1]; Without Metabolic Activation, TA100, 0.145 μg/plate): 88 ± 11 ^N
Revertant Colony Counts (Mean ± SD) ([1]; Without Metabolic Activation, TA100, 0.452 μg/plate): 86 ± 13 ^N
Revertant Colony Counts (Mean ± SD) ([1]; Without Metabolic Activation, TA100, 1.45 μg/plate): 84 ± 16 ^N
Revertant Colony Counts (Mean ± SD) ([1]; Without Metabolic Activation, TA100, 4.52 μg/plate): 53 ± 7 ^R
Revertant Colony Counts (Mean ± SD) ([1]; Without Metabolic Activation, TA100, 14.5 μg/plate): 51 ± 4 ^M R
Revertant Colony Counts (Mean ± SD) ([1]; Without Metabolic Activation, TA1535, 0.0181 μg/plate): 15 ± 4 ^N
Revertant Colony Counts (Mean ± SD) ([1]; Without Metabolic Activation, TA1535, 0.0452 μg/plate): 16 ± 2 ^N
Revertant Colony Counts (Mean ± SD) ([1]; Without Metabolic Activation, TA1535, 0.145 μg/plate): 12 ± 1 ^N
Revertant Colony Counts (Mean ± SD) ([1]; Without Metabolic Activation, TA1535, 0.452 μg/plate): 11 ± 3 ^N
Revertant Colony Counts (Mean ± SD) ([1]; Without Metabolic Activation, TA1535, 1.45 μg/plate): 11 ± 2 ^N
Revertant Colony Counts (Mean ± SD) ([1]; Without Metabolic Activation, TA1535, 4.52 μg/plate): 8 ± 3 ^N
Revertant Colony Counts (Mean ± SD) ([1]; Without Metabolic Activation, TA1535, 14.5 μg/plate): 4 ± 1 ^R M
Revertant Colony Counts (Mean ± SD) ([1]; Without Metabolic Activation, TA1537, 0.0181 μg/plate): 6 ± 4 ^N
Revertant Colony Counts (Mean ± SD) ([1]; Without Metabolic Activation, TA1537, 0.0452 μg/plate): 6 ± 3 ^N M
Revertant Colony Counts (Mean ± SD) ([1]; Without Metabolic Activation, TA1537, 0.145 μg/plate): 5 ± 0 ^M N
Revertant Colony Counts (Mean ± SD) ([1]; Without Metabolic Activation, TA1537, 0.452 μg/plate): 6 ± 3 ^M N
Revertant Colony Counts (Mean ± SD) ([1]; Without Metabolic Activation, TA1537, 1.45 μg/plate): 5 ± 2 ^N
Revertant Colony Counts (Mean ± SD) ([1]; Without Metabolic Activation, TA1537, 4.52 μg/plate): 3 ± 4 ^N
Revertant Colony Counts (Mean ± SD) ([1]; Without Metabolic Activation, TA1537, 14.5 μg/plate): 1 ± 1 ^R M
Revertant Colony Counts (Mean ± SD) ([1]; Without Metabolic Activation, WP2uvrA, 1.45 μg/plate): 12 ± 5 ^N
Revertant Colony Counts (Mean ± SD) ([1]; Without Metabolic Activation, WP2uvrA, 4.52 μg/plate): 13 ± 3 ^M N
Revertant Colony Counts (Mean ± SD) ([1]; Without Metabolic Activation, WP2uvrA, 14.5 μg/plate): 17 ± 6 ^N
Revertant Colony Counts (Mean ± SD) ([1]; Without Metabolic Activation, WP2uvrA, 45.2 μg/plate): 14 ± 4 ^N
Revertant Colony Counts (Mean ± SD) ([1]; Without Metabolic Activation, WP2uvrA, 145 μg/plate): 15 ± 3 ^N
Revertant Colony Counts (Mean ± SD) ([1]; Without Metabolic Activation, WP2uvrA, 452 μg/plate): 12 ± 2 ^N
Revertant Colony Counts (Mean ± SD) ([1]; Without Metabolic Activation, WP2uvrA, 1450 μg/plate): 8 ± 3 ^E
Revertant Colony Counts (Mean ± SD) ([1]; Without Metabolic Activation, WP2uvrA, 4520 μg/plate): 0 ± 0 ^E
revertant colonies ([1]; any strain, any concentration (1.6 to 5000 μg/plate; 0.160 to 16 μg/plate), with or without metabolic activation): No increase in revertant colonies
Cytotoxicity (% of Control) [2, 3]: 77 % of Control
Endoreduplicate Mean % [2, 3]: 0.0%
Polyploidy Mean % [2, 3]: 0.0%
Aberrant Cells Mean % −g [2, 3]: 0.0%
Aberrant Cells Mean % +g [2, 3]: 1.5%
Cytotoxicity (% of Control) [2, 4]: 65 % of Control
Endoreduplicate Mean % [2, 4]: 0.0%
Polyploidy Mean % [2, 4]: 0.0%
Aberrant Cells Mean % −g [2, 4]: 0.5%
Aberrant Cells Mean % +g [2, 4]: 2.5%
Cytotoxicity (% of Control) [2, 5]: 68 % of Control
Endoreduplicate Mean % [2, 5]: 0.0%
Polyploidy Mean % [2, 5]: 0.0%
Aberrant Cells Mean % −g [2, 5]: 0.5%
Aberrant Cells Mean % +g [2, 5]: 3.0%
Endoreduplicate Mean % [2, 6]: 0.0%
Polyploidy Mean % [2, 6]: 0.5%
Aberrant Cells Mean % −g [2, 6]: 0.5%
Aberrant Cells Mean % +g [2, 6]: 1.0%
Endoreduplicate Mean % [2, 7]: 0.0%
Polyploidy Mean % [2, 7]: 1.5%
Aberrant Cells Mean % −g [2, 7]: 3.0%
Aberrant Cells Mean % +g [2, 7]: 6.0%
Endoreduplicate Mean % [2, 8]: 0.0%
Polyploidy Mean % [2, 8]: 3.0%
Aberrant Cells Mean % −g [2, 8]: 6.0%
Aberrant Cells Mean % +g [2, 8]: 8.5%
Endoreduplicate Mean % [2, 9]: 0.0%
Polyploidy Mean % [2, 9]: 0.0%
Aberrant Cells Mean % −g [2, 9]: 0.5%
Aberrant Cells Mean % +g [2, 9]: 3.0%
Endoreduplicate Mean % [2, 10]: 0.0%
Polyploidy Mean % [2, 10]: 0.0%
Aberrant Cells Mean % −g [2, 10]: 2.0%
Aberrant Cells Mean % +g [2, 10]: 5.5%
Endoreduplicate Mean % [2, 11]: 0.0%
Polyploidy Mean % [2, 11]: 1.0%
Aberrant Cells Mean % −g [2, 11]: 0.5%
Aberrant Cells Mean % +g [2, 11]: 4.5%
Genotoxic Effects ([2]; 3 hour treatment with S9 and 24 hour treatment without S9): Genotoxic Effects: Negative for inducing chromosome aberrations, polyploidy and endoreduplication following a 3 hour treatment
chromosome aberrations, polyploidy and endoreduplication ([2]; 3 hours with or 24 hours without metabolic activation, listed as Rx100.Lysine): No increase in structural or numerical aberrations, polyploidy or endoreduplication; also recorded: negative
cells with chromosome aberrations ([2]; 3 hours without metabolic activation, increase only at 316 μg/mL, listed as Rx100.Lysine): small but statistically significant increase; also recorded: weakly positive
cytotoxicity ([2]; highest concentration tested, 3-hour exposure): Cytotoxicity was observed
Cytotoxic Effect ([2]; study summary, primary human lymphocytes): Cytotoxic Effect: None
